Experimental data published in US11229618B2 (Amarin Pharmaceuticals Ireland Limited, priority 2012, dated 2022).

Experiments:
Assay type in all cases: in vivo, human
[1] = MARINE: RBC fatty acid concentrations, ratios and class proportions (GC/FID)
Method: (§1) A multi-center, placebo-controlled randomized, double-blind, 12-week study with an open-label extension is performed to evaluate the efficacy and safety of AMR101 in patients with fasting triglyceride levels≥500 mg/dL. The primary objective of the study is to determine the efficacy of AMR101 2 g daily and 4 g daily, compared to placebo, in lowering fasting TG levels in patients with fasting TG levels≥500 mg/dL and ≤1500 mg/dL (≥5.65 mmol/L and ≤16.94 mmol/L).
Eligible patients will be randomly assigned at Visit 4 (Week 0) to receive orally AMR101 2 g daily, AMR101 4 g daily, or placebo for the 12-week double-blind treatment period. AMR101 is provided in 1 g liquid-filled, oblong, gelatin capsules. The matching placebo capsule is filled with light liquid paraffin and contains 0 g of AMR101. During the double-blind treatment period, patients will take 2 capsules (AMR101 or matching placebo) in the morning and 2 in the evening for a total of 4 capsules per day. Patients in the AMR101 2 g/day treatment group will receive 1 AMR101 1 g capsule and 1 matching placebo capsule in the morning and in the evening. Patients in the AMR101 4 g/day treatment group will receive 2 AMR101 1 g capsules in the morning and evening.
Lipids were extracted from plasma and RBC suspensions and converted into fatty acid methyl esters for analysis using a standard validated gas chromatography/flame ionization detection method. Fatty acid parameters were compared between EPA treatment groups and placebo using an ANCOVA model with treatment, gender, type of statin therapy, and presence of diabetes as factors, and the baseline parameter value as a covariate. LSMs, SEs, and 2-tailed 95% confidence intervals for each treatment group and for each comparison were determined.
The monounsaturated fatty acid group included myristoleic, palmitoleic, cis-vaccenic, oleic, gondoic/gadoleic, erucic and nervonic acids. The saturated fatty acid group included myristic, palmitic, stearic, arachidic, behenic and lignoceric acids. The “total omega-3” group included α-linolenic, stearidonic, eicosatrienoic, ω-3 arachidonic, eicosapentaenoic, ω-3 docosapentaenoic and docosahecaenoic acids. The “total omega-6” group included linoleic, γ-linolenic, eicosadienoic, dihomo-γ-linolenic, ω-6 arachidonic, adrenic, and ω-6 docosapentaenoic acids. The “total fatty acid” group represented the sum of the monounsaturated, saturated, total omega-3 and total omega-6 groups.

fasting TG levels = assay: MARINE: fasting TG lowering and LDL-C; conditions: for median percent reductions in TG from baseline, 4 g/day compared with 2 g/day: 12 weeks
Method: as §1
The primary efficacy variable for the double-blind treatment period is percent change in TG from baseline to Week 12 endpoint. The secondary efficacy variables for the double-blind treatment period include the following: • Percent changes in total cholesterol (TC), high-density lipoprotein cholesterol (HDL-C), calculated low-density lipoprotein cholesterol (LDL-C), calculated non-high-density lipoprotein cholesterol (non-HDL-C), and very low-density lipoprotein cholesterol (VLDL-C) from baseline to Week 12 endpoint; • Percent change in very low-density lipoprotein TG from baseline to Week 12; • Percent changes in apolipoprotein A-I (apo A-I), apolipoprotein B (apo B), and apo A-I/apo B ratio from baseline to Week 12; • Percent changes in lipoprotein(a) from baseline to Week 12 (selected sites only); • Percent changes in LDL particle number and size, measured by nuclear magnetic resonance, from baseline to Week 12 (selected sites only); • Percent change in remnant-like particle cholesterol from baseline to Week 12 (selected sites only); • Percent change in oxidized LDL from baseline to Week 12 (selected sites only); • Changes in FPG and HbA1c from baseline to Week 12; • Change in insulin resistance, as assessed by the homeostasis model index insulin resistance, from baseline to Week 12; • Percent change in lipoprotein associated phospholipase A2 from baseline to Week 12 (selected sites only); • Change in intracellular adhesion molecule-1 from baseline to Week 12 (selected sites only); • Change in interleukin-6 from baseline to Week 12 (selected sites only); • Change in plasminogen activator inhibitor-1 from baseline to Week 12 (selected sites only); • Change in hsCRP from baseline to Week 12 (selected sites only); • Change in serum phospholipid EPA content from baseline to Week 12; • Change in red blood cell membrane EPA content from baseline to Week 12; and • Change in serum phospholipid and red blood cell membrane content in the following fatty acids from baseline to Week 12: docosapentaenoic acid, docosahexaenoic acid, arachidonic acid, palmitic acid, stearic acid, and oleic acid.
MARINE and ANCHOR were 12-week, phase 3, double-blind studies that randomized patients to IPE 4 g/day, 2 g/day, or placebo. […]

[2] = AAMI 6-week study: safety and tolerability
Method: All randomized subjects that received at least 1 dose of study medication were included in the Safety Population.
Safety evaluations were based on the safety population. Safety and tolerability were assessed in terms of AEs, vital signs, 12-lead ECG, clinical laboratory data, medical history, and study drug compliance. Safety and tolerability data were presented by treatment group.

[3] = red blood cell, IPE 4 g/day vs placebo, week 12, P <0.0001

For `CC/C=C\C/C=C\C/C=C\C/C=C\C/C=C\CCCC(=O)OCC` [IPE, all-cis eicosa-5,8,11,14,17-pentaenoic acid ethyl ester], the “Mono-unsaturated, proportion to total fatty acids, Mean placebo-adjusted percent change from baseline” value ([1]; RBCs, IPE 2 g/day vs placebo, P 0.0435) was −3.1%, the “Saturated, proportion to total fatty acids, Mean placebo-adjusted percent change from baseline” value ([1]; RBCs, IPE 2 g/day vs placebo, P 0.3278) was 1.1% and the “Mono-unsaturated, proportion to total fatty acids, Mean placebo-adjusted percent change from baseline” value ([1]; RBCs, IPE 4 g/day vs placebo, P 0.0154) was −3.9%. For the same compound, the “Saturated, proportion to total fatty acids, Mean placebo-adjusted percent change from baseline” value ([1]; RBCs, IPE 4 g/day vs placebo, P 0.1145) was 1.9%, the “Total omega-6, proportion to total fatty acids, Mean placebo-adjusted percent change from baseline” value ([1]; RBCs, IPE 4 g/day vs placebo, P <0.0001) was −17.3% and the “AA Mean placebo-adjusted percent change from baseline” value ([1]; red blood cell, IPE 2 g/day vs placebo, week 12, P 0.0008) was −8.0%. For the same compound, the “Linoleic Mean placebo-adjusted percent change from baseline” value ([1]; red blood cell, IPE 2 g/day vs placebo, week 12, P 0.1278) was −4.7%, the “Oleic Mean placebo-adjusted percent change from baseline” value ([1]; red blood cell, IPE 2 g/day vs placebo, week 12, P 0.3736) was −2.1% and the “DHA Mean placebo-adjusted percent change from baseline” value ([1]; red blood cell, IPE 2 g/day vs placebo, week 12, P 0.5859) was −1.8%. For the same compound, the “Stearic Mean placebo-adjusted percent change from baseline” value ([1]; red blood cell, IPE 2 g/day vs placebo, week 12, P 0.5886) was 1.1%, the “Palmitic Mean placebo-adjusted percent change from baseline” value ([1]; red blood cell, IPE 2 g/day vs placebo, week 12, P 0.9465) was −0.1% and the “DPAn-3 Mean placebo-adjusted percent change from baseline” value ([1]; red blood cell, IPE 2 g/day vs placebo, week 12, P <0.0001) was 86.4%. For the same compound, the “DHA Mean placebo-adjusted percent change from baseline” value ([1]; red blood cell, IPE 4 g/day vs placebo, week 12, P 0.1216) was −5.2%, the “Oleic Mean placebo-adjusted percent change from baseline” value ([1]; red blood cell, IPE 4 g/day vs placebo, week 12, P 0.1325) was −3.7% and the “Palmitic Mean placebo-adjusted percent change from baseline” value ([1]; red blood cell, IPE 4 g/day vs placebo, week 12, P 0.7427) was −0.7%. The “Stearic Mean placebo-adjusted percent change from baseline” value ([1]; red blood cell, IPE 4 g/day vs placebo, week 12, P 0.7565) was −0.7%, the “DPAn-3 Mean placebo-adjusted percent change from baseline” value [1, 3] was 105.6% and the “Linoleic Mean placebo-adjusted percent change from baseline” value [1, 3] was −13.0%. For the same compound, the “effect on LDL-C” value (fasting TG levels) was “without raising LDL-C”, the “median percent reductions in TG from baseline, 4 g/day compared with 2 g/day” value (fasting TG levels) was “higher with IPE 4 g/day than with 2 g/day” and the “median percent reductions in TG from baseline, 4 g/day compared with 2 g/day” value (fasting TG levels; listed as EPA) was “higher for subjects administered about 4 grams of EPA per day”. For the same compound, the “effect on TG levels” value (fasting TG levels; patients with very high TG levels) was “significantly reduced TG levels”, the “TEAEs Definitely Related to the study drug” value [2] was “No TEAEs were Definitely Related” and the “deaths during the study” value [2] was “no deaths”. The “nausea Probably Related to the study drug” value ([2]; 1 g) was “One subject”, the “subjects with nausea Possibly Related to the study drug” value (“subjects with nausea Possibly Related” for short) ([2]; 1 g cohort) was “two” and the “subjects with nausea Possibly Related” value ([2]; 2 g cohort) was “one”. For the same compound, the serious adverse events ([2]; 2 g treatment group) was “One SAE”, the “subjects discontinued due to TEAEs” value ([2]; 2 g treatment group) was 2 subjects and the “diarrhea Probably Related to the study drug” value ([2]; 4 g) was “Another subject”. The “subjects with nausea Possibly Related” value ([2]; 4 g cohort) was “two”, the “severity and relatedness of most TEAEs” value ([2]; all groups) was “mild in severity and unrelated to study drug” and the “treatment emergent AEs (TEAEs) reported” value ([2]; ethyl-EPA treatment groups (placebo groups 34 events)) was 105 events.
